What all share (assay type): cell-based
The subject of experiment [1] is OVCAR-3 (Adenocarcinoma, ovary, human). Briefly: Anti-cancer activity assay, alamarBlue cell growth, OVCAR-3.
Excerpt: Four human tumor cell lines, OVCAR-3 (Adenocarcinoma, ovary, human), A549 (Carcinoma, lung, human), HT-29 (Adenocarcinoma, colon, moderately well-differentiated grade II, human) and MCF-7 (Breast adenocarcinoma, pleural effusion, human) were chosen in the experiments., which were obtained from American Type Culture Collection (ATCC) under codes of ATCC HTB-161, ATCC CCL-185, ATC HTB-38 and ATCC HTB-22, respectively. The culture medium used for OVCAR-3 was RPMI 1640 medium with 20% fetal bovine serum, which was supplemented with 0.01 mg bovine insulin per ml and 1% Antibiotice-Antimycotic. The culture medium used for A549 was F-12K nutrient mixture (Kaighn's Modification), 90%; and fetal bovine serum 10%. The culture medium used for HT-29 was McCoy's 5A medium, 90%; and fetal bovine serum, 10%. The culture medium used for MCF-7 was Minimum Essential Medium, 90%; and fetal bovine serum, 10%.
CK was dissolved in a mixed solvent of ethanol and Cremophor® RH40 (ethanol:Cremophor® RH40=1:1), and then diluted with sterile distilled water to obtain test solutions having CK concentrations of 10000, 1000, 100, 10, 1 μg/ml in 5% ethanol and 5% Cremophor® RH40.
(§1) Aliquots of 100 μl of cell suspension (about 1.0˜3.0×10^3/well) were placed in 96-well microtiter plates in an atmosphere of 5% CO2 at 37° C. After 24 hours, 100 μl of growth medium and 2 μl of test solution or vehicle (5% ethanol and 5% Cremophor® RH40) were added per respectively per well in duplicate for an additional 72-hour incubation. Thus, the final concentration of vehicle was 0.05%. The test compound, CK, was evaluated at concentrations of 100, 10, 1, 0.1, 0.01 μg/ml. At the end of the incubation, 20 μl of alamarBlue 90% reagent was added to each well for another 6-hour incubation before detection of cell viability by fluorescent intensity. Fluorescent intensity was measured using a SPECTRAfluor Plus plate reader with excitation at 530 nm and emission at 590 nm.
The tumor cell lines used were the same as in Experiment 1.
CK succinate and CK glutarate derivatives were directly dissolved in the phosphate buffered saline (PBS) having a pH of 7.4, and then diluted with sterile distilled water to obtain test solutions having concentrations of the CK derivative of 2000, 200, 20, 2, 0.2 μg/ml in 40% PBS
as §1, with “(about 5.0×10^3/well)” for “(about 1.0˜3.0×10^3/well)”, “hours, 90” for “hours, 100”, “and 10” for “and 2”, “vehicle (40% PBS, pH 7.4)” for “vehicle (5% ethanol and 5% Cremophor® RH40)”, “compound, CK derivative,” for “compound, CK,”
The measured results were calculated according to the following formulas: • PG (Percent Growth): PG(%)=100%×(Mean Ftest-Mean Ftime0)/(Mean Fctrl-Mean Ftime0) • If (Mean Ftest-Mean Ftime0)<0, then PG(%)=100%×(Mean Ftest-Mean Ftime0)/(Mean Ftime0-Mean Fblank) wherein • Mean Ftime0=The average of two measured fluorescent intensities of reduced alamarBlue at the time just before exposure of cells to the test compound; • Mean Ftest=The average of two measured fluorescent intensities of alamarBlue after 72-hour exposure of cells to the test compound; • Mean Fctrl=The average of two measured fluorescent intensities of alamarBlue after 72-hour incubation without the test compound; • Mean Fblank=The average of two measured fluorescent intensities of alamarBlue in medium without cells after 72-hour incubation. […]

Experiment [2] deals with MCF-7 (Breast adenocarcinoma, pleural effusion, human). Kind of experiment: Anti-cancer activity assay, alamarBlue cell growth, MCF-7. The conditions noted are these: 72-hour incubation, CK in 5% ethanol/5% Cremophor RH40, derivatives in PBS pH 7.4, read-out: IC50 (μM) of CK, CK succinate and CK glutarate derivatives, MCF-7. An excerpt: (§2) Four human tumor cell lines, OVCAR-3 (Adenocarcinoma, ovary, human), A549 (Carcinoma, lung, human), HT-29 (Adenocarcinoma, colon, moderately well-differentiated grade II, human) and MCF-7 (Breast adenocarcinoma, pleural effusion, human) were chosen in the experiments., which were obtained from American Type Culture Collection (ATCC) under codes of ATCC HTB-161, ATCC CCL-185, ATC HTB-38 and ATCC HTB-22, respectively. The culture medium used for OVCAR-3 was RPMI 1640 medium with 20% fetal bovine serum, which was supplemented with 0.01 mg bovine insulin per ml and 1% Antibiotice-Antimycotic. […]
(§3) Aliquots of 100 μl of cell suspension (about 1.0˜3.0×10^3/well) were placed in 96-well microtiter plates in an atmosphere of 5% CO2 at 37° C. […] The test compound, CK, was evaluated at concentrations of 100, 10, 1, 0.1, 0.01 μg/ml. […] Fluorescent intensity was measured using a SPECTRAfluor Plus plate reader with excitation at 530 nm and emission at 590 nm. […]
(§4) Aliquots of 100 μl of cell suspension (about 5.0×10^3/well) were placed in 96-well microtiter plates in an atmosphere of 5% CO2 at 37° C. […] The test compound, CK derivative, was evaluated at concentrations of 100, 10, 1, 0.1, 0.01 μg/ml. […] Fluorescent intensity was measured using a SPECTRAfluor Plus plate reader with excitation at 530 nm and emission at 590 nm. […]

In experiment [3] the test system is A549 (Carcinoma, lung, human). Briefly: Anti-cancer activity assay, alamarBlue cell growth, A549. Conditions: 72-hour incubation, CK in 5% ethanol/5% Cremophor RH40, derivatives in PBS pH 7.4, read-out: IC50 (μM) of CK, CK succinate and CK glutarate derivatives, A549.
Excerpt: as §2, §3, §4

Experiment [4] has as its system HT-29 (Adenocarcinoma, colon, moderately well-differentiated grade II, human). Kind of experiment: Anti-cancer activity assay, alamarBlue cell growth, HT-29. The conditions noted are these: 72-hour incubation, CK in 5% ethanol/5% Cremophor RH40, derivatives in PBS pH 7.4, read-out: IC50 (μM) of CK, CK succinate and CK glutarate derivatives, HT-29.
Excerpt: as §2, §3, §4

Where [5] appears, read: OVCAR-3 tumor cell, Table 4, read-out: IC50 (μM) of ginsenosides and it's succinate derivatives on OVCAR-3 tumor cell.
[6] abbreviates: OVCAR-3, 72-hour incubation, alamarBlue, CK in 5% ethanol/5% Cremophor RH40, derivatives in PBS pH 7.4, read-out: IC50 (μM) of CK, CK succinate and CK glutarate derivatives, OVCAR-3.

Read-outs that look alike come from different tables or passages of the source.

For `CC(C)=CCCC(C)(O)[C@H]1CC[C@]2(C)[C@@H]1[C@H](O)C[C@@H]1[C@@]3(C)CC[C@H](O)C(C)(C)[C@@H]3CC[C@]12C` (stereo in doubt) [GS40, protopanaxadiol, reference compound], the IC50 in experiment [1] (setting [5]) is 28.2 µM.
On the same count and under the same terms, then `CC(C)=CCC[C@](C)(O[C@@H]1O[C@H](CO)[C@@H](O)[C@H](O)[C@H]1O)[C@H]1CC[C@]2(C)[C@@H]1[C@H](O)C[C@@H]1[C@@]3(C)CC[C@H](O)C(C)(C)[C@@H]3[C@@H](O)C[C@]12C` [GS30, F1, reference compound], with 50.1 µM.
On the same count and under the same terms, then `CC(C)=CCCC(C)(OC1OC(CO)C(O)C(OC(=O)CCC(=O)O)C1O)C1CCC2(C)C1C(O)CC1C3(C)CCC(O)C(C)(C)C3C(O)CC12C` (stereo not shown) [GS32, F1-3′-monosuccinate], with 14.9 µM.
On the same count and under the same terms, then `CC(C)=CCCC(C)(O)C1CCC2(C)C1C(OC(=O)CCC(=O)O)CC1C3(C)CCC(O)C(C)(C)C3CCC12C` (stereo not shown) [GS41, PPD-12-monosuccinate], with 42.8 µM; and `CC(C)=CCCC(C)(O)C1CCC2(C)C1C(OC(=O)CCC(=O)O)CC1C3(C)CCC(OC(=O)CCC(=O)O)C(C)(C)C3CCC12C` (stereo not shown) [GS42, PPD-3,12-disuccinate], with 30.3 µM; and `CC(C)=CCC[C@](C)(O)[C@H]1CC[C@]2(C)[C@@H]1[C@H](O)C[C@@H]1[C@@]3(C)CC[C@H](O)C(C)(C)[C@@H]3[C@@H](O)C[C@]12C` [GS50, protopanaxatriol, reference compound], with 31.5 µM.
Take `CC(C)=CCCC(C)(O)C1CCC2(C)C1C(OC(=O)CCC(=O)O)CC1C3(C)CCC(O)C(C)(C)C3C(O)CC12C` (stereo not shown) [GS51, PPT-12-monosuccinate]: in experiment [1] (setting [5]), the IC50 was 31.2 µM.
On the same count and under the same terms, then `CC(C)=CCCC(C)(O)C1CCC2(C)C1C(OC(=O)CCC(=O)O)CC1C3(C)CCC(OC(=O)CCC(=O)O)C(C)(C)C3C(O)CC12C` (stereo not shown) [GS52, PPT-3,12-disuccinate], with 26.6 µM; and `CC(C)=CCCC(C)(O)C1CCC2(C)C1C(OC(=O)CCC(=O)O)CC1C3(C)CCC(OC(=O)CCC(=O)O)C(C)(C)C3C(OC(=O)CCC(=O)O)CC12C` (stereo not shown) [GS53, PPT-3,6,12-trisuccinate], with 47.6 µM.
On to `CC(C)=CCCC(C)(OC1OC(COC(=O)CCC(=O)O)C(O)C(O)C1O)C1CCC2(C)C1C(O)CC1C3(C)CCC(O)C(C)(C)C3CCC12C` (stereo not shown) [GS-6, CK-6′-monosuccinate], for which the IC50 in experiment [1] (setting [6]) is 22.1 µM.
`CC(C)=CCC[C@](C)(O[C@@H]1O[C@H](CO)[C@@H](O)[C@H](OC(=O)CCC(=O)O)[C@H]1O)[C@H]1CC[C@]2(C)[C@@H]1[C@H](O)C[C@@H]1[C@@]3(C)CC[C@H](O)C(C)(C)[C@@H]3CC[C@]12C` [GS-8, CK-3′-monosuccinate]: the half-inhibitory concentration (IC50) is 53.9 µM in experiment [2], 31.8 µM in experiment [3], 71.9 µM in experiment [4] and 19.3 µM in experiment [1] (setting [6]).
`CC(C)=CCCC(C)(OC1OC(COC(=O)CCC(=O)O)C(O)C(OC(=O)CCC(=O)O)C1O)C1CCC2(C)C1C(O)CC1C3(C)CCC(O)C(C)(C)C3CCC12C` (stereo not shown) [GS-9, CK-3′,6,-disuccinate]: the concentration for half-maximal inhibition (IC50) in experiment [1] (setting [6]) came out at 89.9 µM.
The same measure, in the same setting: next, `CC(C)=CCCC(C)(OC1OC(COC(=O)CCC(=O)O)C(OC(=O)CCC(=O)O)C(OC(=O)CCC(=O)O)C1O)C1CCC2(C)C1C(O)CC1C3(C)CCC(O)C(C)(C)C3CCC12C` (stereo not shown) [GS-11, CK-3′,4′,6′-trisuccinate]: > 100 µM.
For `CC(C)=CCC[C@](C)(O[C@@H]1O[C@H](CO)[C@@H](O)[C@H](O)[C@H]1O)[C@H]1CC[C@]2(C)[C@@H]1[C@H](O)C[C@@H]1[C@@]3(C)CC[C@H](O)C(C)(C)[C@@H]3CC[C@]12C` [GS-12, 20-O-β-D-glucopyranosyl-protopanaxadiol, reference compound], the IC50 in experiment [2] was 11.2 µM; in experiment [3] it was 17.7 µM; in experiment [4], 9.3 µM; in experiment [1] (setting [6]), 2.7 µM.
Turning to `CC(C)=CCCC(C)(OC1OC(CO)C(O)C(OC(=O)CCCC(=O)O)C1O)C1CCC2(C)C1C(O)CC1C3(C)CCC(O)C(C)(C)C3CCC12C` (stereo not shown) [GS-13, CK-3′-monoglutarate], the IC50 in experiment [1] (setting [6]) was determined as 69.1 µM.
The same measure, in the same setting: then `CC(C)=CCCC(C)(OC1OC(COC(=O)CCCC(=O)O)C(O)C(OC(=O)CCCC(=O)O)C1O)C1CCC2(C)C1C(O)CC1C3(C)CCC(O)C(C)(C)C3CCC12C` (stereo not shown) [GS-14, CK-3′,6′-diglutarate], with 79.8 µM.
